Where two headings read alike, the source gives them in different places.
Assays:
[1] = molecular target: T1, GST-FAK (N-terminal GST fusion with truncated human FAK (376-1052 (end) amino acids)) (Homo sapiens, UniProt Q05397); assay: Biochemical enzyme assay for FAK activity (Caliper LC3000 mobility shift); settings: 100 uM ATP
T1 construct: truncated human FAK (376-1052 (end) amino acids)
How it was run: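 Inhibitor dose series in DMSO were incubated 90 min at 25 °C with truncated GST-tagged human FAK (0.067 ng/µl) and FITC-labelled peptide substrate (1 µM), with ATP at 100 µM and FERM peptide at 1 mM (pH 7.5 HEPES). After EDTA quench, phosphorylated and unphosphorylated peptides were resolved electrophoretically. Percent conversion was fitted for IC50.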

[2] = molecular target: T2, focal adhesion kinase (FAK) autophosphorylation at tyrosine 397 in HT29 cells (Homo sapiens, UniProt Q05397); assay: Cellular testing of FAK inhibitors: FAK autophosphorylation at tyrosine 397 in HT29 cells (Luminex-based assay); type: cell-based; settings: 30 min serum-free
T2 construct: endogenous in cells; host or cells: HT29
Method: 2. Assay Principle for Celluar Testing of FAK Inhibitors
Cellular activity of focal adhesion kinase (FAK) is determined by the degree of FAK autophosphorylation at tyrosine 397 using a Luminex-based assay. HT29 cells are plated with 30,000 cells per well of a 96-well plate in 100 μl medium (90% DMEM/10% FCS). At the following day, test compounds are added in a serial dilution under serum-free conditions for 30 min. Then, cells were lysed with 90 μl lysis buffer (20 mM Tris/HCl pH 8.0, 150 mM NaCl, 1% NP40, 10% Glycerol, 1% Phosphatase-Inhibitor II, 20 mM […]-Glycerolphosphat, 0.1% Protease-Inhibitor Cocktail III, 0.01% Benzonase) and lysates were cleared by centrifugation through a 96-well filter plate (0.65 μm). Samples were incubated with Luminex-beads which were coupled with an anti-total FAK antibody overnight at 4° C. with under gentle agitation. For detection of phospho-Y397-FAK a phosphospecific antibody and a species specific PE-labeled secondary antibody are added. The amount of phospho-Y397-FAK is determined in a Luminex100 machine measuring 100 events per well within 60 seconds.
Counts from samples treated with a FAK reference inhibitor are subtracted as pharmacological blank. Counts from samples treated with test compounds are calculated as percent of control from solvent treated (0.3% DMSO) samples. IC50 values were determined using AssayExplorer software.

[3] = Table 3, phospho-Y397-FAK, read-out: HT-29 IC50
[4] = Table 2, phospho-Y397-FAK, read-out: HT-29 IC50

T1 sequence (Q05397 376-1052): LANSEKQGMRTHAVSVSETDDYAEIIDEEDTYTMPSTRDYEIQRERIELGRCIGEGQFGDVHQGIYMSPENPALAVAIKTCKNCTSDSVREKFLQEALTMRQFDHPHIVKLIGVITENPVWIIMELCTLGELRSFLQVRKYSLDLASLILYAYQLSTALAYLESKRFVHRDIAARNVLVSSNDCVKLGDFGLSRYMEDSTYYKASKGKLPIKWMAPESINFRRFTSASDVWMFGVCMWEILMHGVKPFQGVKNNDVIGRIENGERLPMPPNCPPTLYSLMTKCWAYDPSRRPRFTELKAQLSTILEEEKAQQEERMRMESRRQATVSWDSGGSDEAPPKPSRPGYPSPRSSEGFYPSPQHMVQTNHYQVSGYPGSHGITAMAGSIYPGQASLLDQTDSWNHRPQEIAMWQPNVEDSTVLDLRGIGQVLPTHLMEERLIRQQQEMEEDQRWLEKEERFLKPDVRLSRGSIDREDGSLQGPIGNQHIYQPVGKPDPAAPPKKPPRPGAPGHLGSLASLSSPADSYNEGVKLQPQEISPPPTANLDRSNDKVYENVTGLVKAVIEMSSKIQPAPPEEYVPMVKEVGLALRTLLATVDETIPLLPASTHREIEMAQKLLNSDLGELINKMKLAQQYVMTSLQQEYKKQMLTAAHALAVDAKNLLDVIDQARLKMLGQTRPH
T2 sequence (Q05397 whole entry): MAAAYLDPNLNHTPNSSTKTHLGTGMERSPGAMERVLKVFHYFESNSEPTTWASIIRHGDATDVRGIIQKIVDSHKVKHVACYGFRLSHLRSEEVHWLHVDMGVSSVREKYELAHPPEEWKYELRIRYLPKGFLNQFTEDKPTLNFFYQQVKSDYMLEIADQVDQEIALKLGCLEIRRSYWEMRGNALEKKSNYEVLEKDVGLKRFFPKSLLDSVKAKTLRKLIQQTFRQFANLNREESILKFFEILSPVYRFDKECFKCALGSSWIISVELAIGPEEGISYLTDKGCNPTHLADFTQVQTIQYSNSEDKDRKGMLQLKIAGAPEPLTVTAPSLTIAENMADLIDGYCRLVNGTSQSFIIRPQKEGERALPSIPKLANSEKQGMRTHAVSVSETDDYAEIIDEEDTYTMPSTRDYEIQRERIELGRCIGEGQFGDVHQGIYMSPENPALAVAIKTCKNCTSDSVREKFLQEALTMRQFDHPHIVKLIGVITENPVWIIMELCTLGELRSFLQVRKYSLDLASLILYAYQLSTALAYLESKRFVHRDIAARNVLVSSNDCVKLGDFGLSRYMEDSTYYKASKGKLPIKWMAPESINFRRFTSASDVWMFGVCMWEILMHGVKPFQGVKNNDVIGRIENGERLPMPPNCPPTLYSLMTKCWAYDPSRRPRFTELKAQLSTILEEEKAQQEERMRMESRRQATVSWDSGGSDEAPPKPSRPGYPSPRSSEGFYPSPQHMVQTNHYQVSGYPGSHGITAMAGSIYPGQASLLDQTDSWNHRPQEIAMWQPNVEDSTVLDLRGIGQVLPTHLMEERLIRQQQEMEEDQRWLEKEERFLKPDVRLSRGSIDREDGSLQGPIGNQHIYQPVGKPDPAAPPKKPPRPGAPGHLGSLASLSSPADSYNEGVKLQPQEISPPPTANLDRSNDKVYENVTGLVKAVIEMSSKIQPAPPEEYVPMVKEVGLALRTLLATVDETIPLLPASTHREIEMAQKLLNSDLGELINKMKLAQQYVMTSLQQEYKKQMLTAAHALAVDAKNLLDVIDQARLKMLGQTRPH

| SMILES | IC50 ([1]; Table 3, read-out: FAK IC50) | IC50 [2, 3] | IC50 ([1]; Table 2, read-out: FAK IC50) | IC50 [2, 4] | also measured |
| --- | --- | --- | --- | --- | --- |
| CC(Nc1ccnc(-c2cncc(C(F)(F)F)c2)n1)c1ccccc1C(F)(F)F (stereo not drawn) [Compound 130, N-{1-[2-(Trifluoromethyl)phenyl]ethyl}-2-[5-(trifluoromethyl)pyridin-3-yl]pyrimidin-4-amine] | < 100 nM | > 10000 nM |  |  |  |
| Fc1ccc(CNc2ccnc(-c3cncc(Cl)c3)n2)c(C(F)(F)F)c1 [Compound 119, 2-(5-Chloropyridin-3-yl)-N-[4-fluoro-2-(trifluoromethyl)benzyl]pyrimidin-4-amine] | < 100 nM | 1000 to 10000 nM |  |  |  |
| Nc1ncc(Cl)cc1-c1nccc(NCc2ccccc2C(F)(F)F)n1 [Compound 129, 2-(2-Amino-5-chloropyridin-3-yl)-N-[2-(trifluoromethyl)benzyl]pyrimidin-4-amine] | < 100 nM | 1000 to 10000 nM |  |  |  |
| CN(C)CCNC(=O)c1cc(NCc2ccc(F)cc2F)nc(-c2cncc(C(F)(F)F)c2)n1 [Compound 148, 6-[(2,4-difluorophenyl)methylamino]-N-(2-dimethylaminoethyl)-2-[5-(trifluoromethyl)-3-pyridyl]pyrimidine-4-carboxamide] |  |  |  |  | IC50 ([1]; Table 4, read-out: IC50 FAK): < 100 nM; IC50 ([2]; Table 4, phospho-Y397-FAK, read-out: IC50 HT-29): 100 to 1000 nM |
| CC(Nc1ccnc(-c2cncc(Cl)c2)n1)c1ccccc1C(F)(F)F (stereo not drawn) [Compound 124, 2-(5-Chloropyridin-3-yl)-N-{1-[2-(trifluoromethyl)phenyl]ethyl}pyrimidin-4-amine] | < 100 nM | 1000 to 10000 nM |  |  |  |
| Nc1ncccc1-c1nccc(NCc2ccccc2C(F)(F)F)n1 [Compound 77, 2-(2-Aminopyridin-3-yl)-N-[2-(trifluoromethyl)benzyl]pyrimidin-4-amine] | 100 to 1000 nM | > 10000 nM |  |  |  |
| FC(F)(F)c1cncc(-c2nccc(NCc3ccccc3C(F)(F)F)n2)c1 [Compound 112, N-[2-(Trifluoromethyl)benzyl]-2-[5-(trifluoromethyl)pyridin-3-yl]pyrimidin-4-amine] | < 100 nM | 1000 to 10000 nM |  |  |  |
| Fc1cncc(-c2nccc(NCc3ccccc3C(F)(F)F)n2)c1 [Compound 107, 2-(5-Fluoropyridin-3-yl)-N-[2-(trifluoromethyl)benzyl]pyrimidin-4-amine] | 100 to 1000 nM | > 10000 nM |  |  |  |
| Nc1ncc(Cl)cc1-c1nccc(NCc2ccc(F)cc2F)n1 [Compound 126, 2-(2-Amino-5-chloropyridin-3-yl)-N-(2,4-difluorobenzyl)pyrimidin-4-amine] | < 100 nM | 1000 to 10000 nM |  |  |  |
| Clc1cncc(-c2nccc(NCc3cccc4c3OCO4)n2)c1 [Compound 127, N-(1,3-Benzodioxol-4-ylmethyl)-2-(5-chloropyridin-3-yl)pyrimidin-4-amine] | < 100 nM | > 10000 nM |  |  |  |
| Clc1cncc(-c2nccc(NCc3cccc4nsnc34)n2)c1 [Compound 131, N-(2,1,3-Benzothiadiazol-4-ylmethyl)-2-(5-chloropyridin-3-yl)pyrimidin-4-amine] | < 100 nM | > 10000 nM |  |  |  |

Continued, in another order:

| IC50 ([1]; Table 3, read-out: FAK IC50) | IC50 [2, 3] | IC50 ([1]; Table 2, read-out: FAK IC50) | IC50 [2, 4] | SMILES | also measured |
| --- | --- | --- | --- | --- | --- |
|  |  | < 100 nM | 1000 to 10000 nM | CN(C)CCCNC(=O)c1cc(NCc2ccc(F)cc2F)nc(-c2cncc(C(F)(F)F)c2)n1 [Compound 45, 6-(2,4-Difluoro-benzylamino)-2-(5-trifluoromethyl-pyridin-3-yl)-pyrimidine-4-carboxylic acid (3-dimethylamino-propyl)-amide] |  |
|  |  | < 100 nM | 1000 to 10000 nM | NC(=O)C1CCCN(C(=O)c2cc(NCc3ccc(F)cc3F)nc(-c3cncc(C(F)(F)F)c3)n2)C1 (stereo not drawn) [Compound 50, 1-[6-(2,4-Difluoro-benzylamino)-2-(5-trifluoromethyl-pyridin-3-yl)-pyrimidine-4-carbonyl]-piperidine-3-carboxylic acid amide] |  |
|  |  | < 100 nM | 1000 to 10000 nM | CN1CCC(NC(=O)c2cc(NCc3ccc(F)cc3F)nc(-c3cncc(C(F)(F)F)c3)n2)CC1 [Compound 54, 6-(2,4-Difluoro-benzylamino)-2-(5-trifluoromethyl-pyridin-3-yl)-pyrimidine-4-carboxylic acid (1-methyl-piperidin-4-yl)-amide] |  |
| < 100 nM | 100 to 1000 nM |  |  | Fc1ccc(CNc2ccnc(-c3cncc(Cl)c3)n2)c(F)c1 [Compound 114, 2-(5-Chloropyridin-3-yl)-N-(2,4-difluorobenzyl)pyrimidin-4-amine] |  |
|  |  | 100 to 1000 nM | 1000 to 10000 nM | O=C1CCCN1CCCNc1cc(NCc2ccc(F)cc2F)nc(-c2cncc(C(F)(F)F)c2)n1 [Compound 57, 1-{3-[6-(2,4-Difluoro-benzylamino)-2-(5-trifluoromethyl-pyridin-3-yl)-pyrimidin-4-ylamino]-propyl}-pyrrolidin-2-one] |  |
|  |  | < 100 nM | 1000 to 10000 nM | O=C(NCCC(=O)N1CCOCC1)c1cc(NCc2ccc(F)cc2F)nc(-c2cncc(C(F)(F)F)c2)n1 [Compound 43, 6-(2,4-Difluoro-benzylamino)-2-(5-trifluoromethyl-pyridin-3-yl)-pyrimidine-4-carboxylic acid (3-morpholin-4-yl-3-oxo-propyl)-amide] |  |
|  |  | < 100 nM | 100 to 1000 nM | NC(=O)CCNC(=O)c1cc(NCc2ccc(F)cc2F)nc(-c2cncc(C(F)(F)F)c2)n1 [Compound 41, 6-(2,4-Difluoro-benzylamino)-2-(5-trifluoromethyl-pyridin-3-yl)-pyrimidine-4-carboxylic acid (2-carbamoyl-ethyl)-amide] |  |
|  |  | 100 to 1000 nM | 1000 to 10000 nM | Fc1ccc(CNc2cc(NCCCn3ccnc3)nc(-c3cncc(C(F)(F)F)c3)n2)c(F)c1 [Compound 56, N-(2,4-Difluoro-benzyl)-N′-(3-imidazol-1-yl-propyl)-2-(5-trifluoromethyl-pyridin-3-yl)-pyrimidine-4,6-diamine] |  |
|  |  | < 100 nM | 1000 to 10000 nM | CN1CCN(C(=O)CCNC(=O)c2cc(NCc3ccc(F)cc3F)nc(-c3cncc(C(F)(F)F)c3)n2)CC1 [Compound 44, 6-(2,4-Difluoro-benzylamino)-2-(5-trifluoromethyl-pyridin-3-yl)-pyrimidine-4-carboxylic acid [3-(4-methyl-piperazin-1-yl)-3-oxo-propyl]-amide] |  |
|  |  | 100 to 1000 nM | 1000 to 10000 nM | CN1CCN(C(=O)CCNc2cc(NCc3ccc(F)cc3F)nc(-c3cncc(C(F)(F)F)c3)n2)CC1 [Compound 64, 3-[6-(2,4-Difluoro-benzylamino)-2-(5-trifluoromethyl-pyridin-3-yl)-pyrimidin-4-ylamino]-1-(4-methyl-piperazin-1-yl)-propan-1-one] |  |
|  |  | < 100 nM | 1000 to 10000 nM | O=C(NCCc1c[nH]cn1)c1cc(NCc2ccc(F)cc2F)nc(-c2cncc(C(F)(F)F)c2)n1 [Compound 52, 6-(2,4-Difluoro-benzylamino)-2-(5-trifluoromethyl-pyridin-3-yl)-pyrimidine-4-carboxylic acid [2-(1H-imidazol-4-yl)-ethyl]-amide] |  |
|  |  | < 100 nM | > 10000 nM | O=C(NCCCN1CCOCC1)c1cc(NCc2ccc(F)cc2F)nc(-c2cncc(C(F)(F)F)c2)n1 [Compound 48, 6-(2,4-Difluoro-benzylamino)-2-(5-trifluoromethyl-pyridin-3-yl)-pyrimidine-4-carboxylic acid (3-morpholin-4-yl-propyl)-amide] |  |
|  |  | < 100 nM | 1000 to 10000 nM | CN(C)CCCCNC(=O)c1cc(NCc2ccc(F)cc2F)nc(-c2cncc(C(F)(F)F)c2)n1 [Compound 53, 6-(2,4-Difluoro-benzylamino)-2-(5-trifluoromethyl-pyridin-3-yl)-pyrimidine-4-carboxylic acid (4-dimethylamino-butyl)-amide] |  |
